Reference: US20230301895A1, “NAIL FORMULATIONS AND TREATMENT REGIMES” (NOVABIOTICS LIMITED, priority 2020, published 2023)
Values after ≈ are worked out from the molar mass of the structure shown. Where a SMILES comes first, the peptide text is derived from it. [ ]: non-standard residue; d: D form. The star is where a group is joined. Sta = CC(C)C[C@H](N)[C@@H](O)CC(=O)O; Isovaleryl = CC(C)CC(=O)*

Experiments:
[1] = test system: T. interdigitale NCPF0335; type: cell-based; settings: for effect of protease inhibitor alone on growth: 1 mM PMSF, 1 mg/L Pepstatin A, 10 µM E-64; for effect of protease inhibitor alone on growth / growth inhibition by protease inhibitor alone: 100 µM EDTA; for growth inhibition by protease inhibitor alone: RPMI-1640, 1 mg/L PMSF, 10 µM E64, 1 mg/L pepstatin
Procedure: (§1) Antifungal susceptibility testing to determine the MIC was conducted by the broth microdilution procedure for filamentous fungi (M38-A2) (Clinical & Laboratory Standards Institute (CLSI). 2008. Reference Method for Broth Dilution Antifungal Susceptibility Testing of Filamentous Fungi; Approved Standard - Second Edition (M38-A2). Clinical and Laboratory Standards Institute, Wayne, PA). This experiment was carried out in triplicate with triplicate samples in each experiment. The proteolytic stability of NP213 was assessed by determining NP213 MIC as described above versus T. rubrum NCPF0118 and T. interdigitale NCPF0335 in the presence of the following protease inhibitors; serine proteases (1 mM phenylmethylsulfonyl fluoride; PMSF), metalloproteases (100 µM ethylenediaminetetraacetic acid; EDTA), aspartyl proteases (1 mg/L Pepstatin A) and cysteine proteases (10 µM trans-epoxysuccinyl-L-leucylamido(4-guanidino)butane; E-64).
(§2) T. rubrum NCPF0118 and T. interdigitale NCPF0335 in RPMI-1640 liquid medium. MIC was determined by the broth microdilution procedure (CLSI, 2008). Metalloprotease inhibitor -100 µM EDTA; Serine protease inhibitor - 1 mg/L PMSF; Cysteine protease inhibitor -10 µM E64; Aspartyl protease inhibitor - 1 mg/L pepstatin.
(§3) Antifungal susceptibility testing was conducted by the broth microdilution procedure as described in CLSI Approved Standard M38-A2. All peptides were dissolved in sterile deionised water (40 mg/ml) and stored at -20° C. until required. All experiments were carried out in triplicate, with triplicate samples in each experiment.

[2] = test system: T. rubrum NCPF0118 and T. interdigitale NCPF0335; test: Antifungal susceptibility testing, summary statements for both dermatophytes; type: cell-based; settings: Example 4 summary
Procedure: as §1
Antifungal susceptibility testing was carried out as described above, but with the following modifications. RPMI-1640 medium was substituted for 0.5% (w/v) powdered nail, skin keratin or sheep’s wool keratin suspensions in 10 mM sodium phosphate buffer, pH 7.0 containing 0.0025% (w/v) AlamarBlue™ (ThermoFisher Scientific, UK). […]

T. rubrum NCPF0118 [3] = type: cell-based, Trichophyton rubrum; settings: for effect of protease inhibitor alone on growth: 1 mM PMSF, 1 mg/L Pepstatin A, 10 µM E-64; for effect of protease inhibitor alone on growth / growth inhibition by protease inhibitor alone: 100 µM EDTA; for growth inhibition by protease inhibitor alone: RPMI-1640, 1 mg/L PMSF, 10 µM E64, 1 mg/L pepstatin
Procedure: as §1, §2, §3

[4] = test system: Trichophyton rubrum NCPF0118; test: Experimental model of dermatophyte nail infection on human nail fragments, colony counts; type: cell-based; settings: daily application to dorsal side of infected nail; FIG. 15
Procedure: An experimental model of dermatophyte nail infection was optimized to simulate onychomycosis under laboratory conditions and to test the antifungal efficacy of NP213. As an inert support and to provide a moist atmosphere, sterile water agar plates were prepared in 90-mm Petri dishes (1.5% (w/v) agar in sterile-deionised water). Petri dishes were divided into three sections, and individual pieces of sterile silicone rubber tubing (1-cm diameter; 3-mm height) were placed in each section, allowing the investigation of three nail fragments per plate. This prevented direct contact between the nails and the agar surface or the lid of the Petri dish. Such a setup was necessary because agar contains components that can bind to cationic peptides, including NP213, inhibiting their diffusion and reducing activity. Silicon tubing is permeable to oxygen and carbon dioxide, and its use ensured oxygen access to support fungal growth. Its diameter was sufficiently small to stably support the nail fragments. Uninfected human nails (sourced under ethical approval) were cleaned of all residual skin and debris before cutting to size (approximately four fragments were obtained from an adult great toenail), and their surface area and thickness were determined using a micrometer. […] Samples were plated on potato dextrose agar and incubated at 30° C. for 14 days, and the colonies were counted.

T. rubrum NCPF0118 [5] = test: Metabolic activity (Alamar blue) of T. rubrum exposed to NP213 in dried nail lacquers or PEG4000 formulation; type: cell-based, Trichophyton rubrum
Procedure: NP213 (5 and 10% w/v) was formulated in 50% (v/v) PEG4000. Alternatively, NP213 was dissolved/suspended in the lacquer formulations at concentrations of 0, 5 or 10 % (w/v). 10 µl of each lacquer was applied to the base of a well in a flat-bottomed 96-well plate in triplicate wells and allowed to dry for 90 min. An inoculum of 3 × 10^3 cfu T. rubrum NCPF0118 was prepared in 1 × RPMI-1640 liquid medium and 200 µl was added to all wells containing lacquers and control wells containing no lacquer (growth control). An additional 3 wells per plate contained 200 µl RPMI-1640 liquid medium without inoculum to serve as sterility controls. To each well was added a minimal volume of Alamar blue solution (0.0025% (w/v) final concentration). Antifungal activity was determined based on changes in metabolic activity (due to metabolism of the cell viability indicator Alamar blue). Metabolic activity was monitored by fluorescence (Ex 530 nm/Em 590 nm) every 24 h for up to 168 h.

O=C(O)CN(CCN(CC(=O)O)CC(=O)O)CC(=O)O [EDTA, ethylenediaminetetraacetic acid]
effect of protease inhibitor alone on growth [1]: no effect on the growth | growth inhibition by protease inhibitor alone [1]: did not inhibit growth | effect of metalloprotease inhibitor on the anti-fungal effect of the cyclic peptide [2]: enhanced | effect of protease inhibitor alone on growth (T. rubrum NCPF0118 [3]): no effect on the growth | growth inhibition by protease inhibitor alone (T. rubrum NCPF0118 [3]): did not inhibit growth

CC(C)C[C@H](NC(=O)[C@H]1O[C@@H]1C(=O)O)C(=O)NCCCCN=C(N)N (relative stereo) [Peptide E-64, trans-epoxysuccinyl-L-leucylamido(4-guanidino)butane]
effect of protease inhibitor alone on growth [1]: no effect on the growth | growth inhibition by protease inhibitor alone [1]: did not inhibit growth | effect of protease inhibitor alone on growth (T. rubrum NCPF0118 [3]): no effect on the growth | growth inhibition by protease inhibitor alone (T. rubrum NCPF0118 [3]): did not inhibit growth

O=S(=O)(F)Cc1ccccc1 [PMSF, phenylmethylsulfonyl fluoride]
effect of protease inhibitor alone on growth [1]: no effect on the growth | growth inhibition by protease inhibitor alone [1]: did not inhibit growth | effect of protease inhibitor alone on growth (T. rubrum NCPF0118 [3]): no effect on the growth | growth inhibition by protease inhibitor alone (T. rubrum NCPF0118 [3]): did not inhibit growth

N=C(N)NCCC[C@@H]1NC(=O)[C@H](CCCNC(=N)N)NC(=O)[C@H](CCCNC(=N)N)NC(=O)[C@H](CCCNC(=N)N)NC(=O)[C@H](CCCNC(=N)N)NC(=O)[C@H](CCCNC(=N)N)NC(=O)[C@H](CCCNC(=N)N)NC(=O)[C@H](CCCNC(=N)N)NC(=O)[C@H](CCCNC(=N)N)NC(=O)[C@H](CCCNC(=N)N)NC(=O)[C@H](CCCNC(=N)N)NC1=O [NP202, cyclic 11 R]
MIC (mg/L) T. interdigitale NPCF0335 [1]: 15.6 mg/L (≈ 9.08 µM) | MIC (mg/L) T.rubrum NCPF0118 (T. rubrum NCPF0118 [3]): 250 mg/L (≈ 146 µM)

N=C(N)NCCC[C@@H]1NC(=O)[C@H](CCCNC(=N)N)NC(=O)[C@H](CCCNC(=N)N)NC(=O)[C@H](CCCNC(=N)N)NC(=O)[C@H](CCCNC(=N)N)NC(=O)[C@H](CCCNC(=N)N)NC(=O)[C@H](CCCNC(=N)N)NC1=O [NP213, cyclic R-R-R-R-R-R-R]
time from beginning treatment until antifungal effects are seen [4]: ≤ 11 days | antifungal activity in Roehm lacquer 1 compared to NP213 in 50% (v/v) PEG4000 (T. rubrum NCPF0118 [5]; 5% and 10% (w/v) NP213, metabolic activity up to 168 h, FIG. 1): lower | antifungal activity in Roehm lacquer 2 compared to NP213 in 50% (v/v) PEG4000 (T. rubrum NCPF0118 [5]; 5% and 10% (w/v) NP213, metabolic activity up to 168 h, FIG. 2): lower | antifungal activity in Roehm lacquer 3 compared to NP213 in 50% (v/v) PEG4000 (T. rubrum NCPF0118 [5]; 5% and 10% (w/v) NP213, metabolic activity up to 168 h, FIG. 3): lower | antifungal activity in Roehm lacquer 4 compared to NP213 in 50% (v/v) PEG4000 (T. rubrum NCPF0118 [5]; 5% and 10% (w/v) NP213, metabolic activity up to 168 h, FIG. 4): lower | antifungal activity in Roehm lacquer 5 compared to NP213 in 50% (v/v) PEG4000 (T. rubrum NCPF0118 [5]; 5% and 10% (w/v) NP213, metabolic activity up to 168 h, FIG. 5): lower | antifungal activity in Anacor lacquer C compared to NP213 in 50% (v/v) PEG4000 (T. rubrum NCPF0118 [5]; 5% and 10% (w/v) NP213, metabolic activity up to 168 h, FIG. 6): lower | antifungal activity in 2d lacquer compared to NP213 in 50% (v/v) PEG4000 (T. rubrum NCPF0118 [5]; 10% (w/v) NP213 in 2d lacquer, metabolic activity up to 168 h, FIG. 7): lower | efficacy in the known nail lacquers (T. rubrum NCPF0118 [5]; lacquers manufactured by Anacor and Roehm): not effective | MIC (mg/L) T. interdigitale NPCF0335 [1]: 500 mg/L (≈ 457 µM) | MIC (mg/L) T.interdigitale NCPF0335 [1]: 500 mg/L (≈ 457 µM) | MIC (mg/L) T.rubrum NCPF0118 (T. rubrum NCPF0118 [3]): 1000 mg/L (≈ 915 µM)

CC(C)C[C@H](NC(=O)[C@@H](O)[C@H](N)Cc1ccccc1)C(=O)O [Bestatin]
effect of metalloprotease inhibitor on the anti-fungal effect of the cyclic peptide [2]: enhanced

N=C(N)NCCC[C@@H]1NC(=O)[C@H](CCCNC(=N)N)NC(=O)[C@H](CCCNC(=N)N)NC(=O)[C@H](CCCNC(=N)N)NC(=O)[C@H](CCCNC(=N)N)NC1=O [NP201, cyclic-5R] (cyclo(RRRRR))
MIC (mg/L) T. interdigitale NPCF0335 [1]: 1000 mg/L (≈ 1280 µM) | MIC (mg/L) T.rubrum NCPF0118 (T. rubrum NCPF0118 [3]): 500 mg/L (≈ 640 µM)

CC(C)CC(=O)N[C@H](C(=O)N[C@H](C(=O)N[C@@H](CC(C)C)[C@@H](O)CC(=O)N[C@@H](C)C(=O)N[C@@H](CC(C)C)[C@@H](O)CC(=O)O)C(C)C)C(C)C [Pepstatin A] (Isovaleryl-VV[Sta]A[Sta]-OH)
effect of protease inhibitor alone on growth [1]: no effect on the growth | growth inhibition by protease inhibitor alone [1]: did not inhibit growth | effect of protease inhibitor alone on growth (T. rubrum NCPF0118 [3]): no effect on the growth | growth inhibition by protease inhibitor alone (T. rubrum NCPF0118 [3]): did not inhibit growth

N=C(N)NCCC[C@@H]1NC(=O)[C@H](CCCNC(=N)N)NC(=O)[C@H](CCCNC(=N)N)NC(=O)[C@H](CCCNC(=N)N)NC(=O)[C@H](CCCNC(=N)N)NC(=O)[C@H](CCCNC(=N)N)NC(=O)[C@H](CCCNC(=N)N)NC(=O)[C@H](CCCNC(=N)N)NC(=O)[C@H](CCCNC(=N)N)NC(=O)[C@H](CCCNC(=N)N)NC(=O)[C@H](CCCNC(=N)N)NC(=O)[C@H](CCCNC(=N)N)NC(=O)[C@H](CCCNC(=N)N)NC(=O)[C@H](CCCNC(=N)N)NC(=O)[C@H](CCCNC(=N)N)NC1=O [NP203, cyclic 15R]
MIC (mg/L) T. interdigitale NPCF0335 [1]: 3.9 mg/L (≈ 1.66 µM) | MIC (mg/L) T.rubrum NCPF0118 (T. rubrum NCPF0118 [3]): 62.5 mg/L (≈ 26.7 µM)
